What is called Kd is the equilibrium constant for the complex coming apart. A word on the Ki: it is a dissociation constant, usually derived from enzyme kinetics or from competition with a known ligand.

Experiment [1] deals with T1, Uracil nucleotide/cysteinyl leukotriene receptor (Homo sapiens, UniProt Q13304). Briefly: Displacement of [3H]PSB-12150 from human GPR17 expressed in CHO-K1 cell membranes up to 1 mM after 60 mins by liquid scintillation counting. On the technique in general: In a radioligand displacement assay an active substance lowers the binding of a labelled ligand.
For experiment [2], the target named is T1, Uracil nucleotide/cysteinyl leukotriene receptor. The experiment in a line: Binding affinity to human GPR17 expressed in CHO-K1 cell membranes after 60 mins by saturation curve study.
Experiment [3] has the same target. The following applies: CHO-K1, 100 uM.
Description: Displacement of [3H]PSB-12150 from human GPR17 expressed in CHO-K1 cell membranes assessed as association half life at 100 uM by liquid scintillation counting
For experiment [4] the target is unchanged. Briefly: Displacement of [3H]PSB-12150 from human GPR17 expressed in CHO-K1 cell membranes after 60 mins by competition binding assay.
Experiment [5] shares this target. The following applies: CHO-K1, 100 uM. The source holds these as a separate data set.
Description: Displacement of [3H]PSB-12150 from human GPR17 expressed in CHO-K1 cell membranes assessed as dissociation half life at 100 uM treated after 1 hr incubation with radioligand by liquid scintillation counting
For experiment [6] the target is unchanged. Briefly: Displacement of [3H]PSB-12150 from human GPR17 expressed in CHO-K1 cell membranes after 60 mins by homologous competition binding assay in presence of pranlukast.
For experiment [7] the target is unchanged. The experiment in a line: biochemical.
Description: Displacement of [3H]PSB-12150 from human GPR17 expressed in CHO-K1 cell membranes after 60 mins by heterologous competition binding assay
Experiment [8] shares this target. Briefly: Displacement of [3H]PSB-12150 from human GPR17 expressed in CHO-K1 cell membranes up to 1 uM after 60 mins by liquid scintillation counting.
For experiment [9] the target is unchanged. Briefly: Displacement of [3H]PSB-12150 from human GPR17 expressed in CHO-K1 cell membranes at 100 uM after 60 mins by liquid scintillation counting.

Calls of active or inactive are those of the source. The calls are words filed in the database; no cut-off is given here.

T1 sequence (Q13304 whole entry): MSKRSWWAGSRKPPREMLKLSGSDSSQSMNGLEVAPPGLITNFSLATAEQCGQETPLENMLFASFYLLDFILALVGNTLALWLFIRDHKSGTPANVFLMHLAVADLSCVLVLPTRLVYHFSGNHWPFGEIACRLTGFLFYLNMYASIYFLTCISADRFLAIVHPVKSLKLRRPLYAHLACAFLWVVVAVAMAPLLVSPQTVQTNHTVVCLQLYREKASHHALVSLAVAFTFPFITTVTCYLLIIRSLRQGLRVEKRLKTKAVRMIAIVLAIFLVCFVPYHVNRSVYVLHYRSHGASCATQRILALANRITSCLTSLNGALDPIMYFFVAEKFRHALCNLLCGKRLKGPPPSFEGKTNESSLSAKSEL

Regarding `O=c1ccn([C@@H]2O[C@H](COP(=O)(O)OP(=O)(O)O)[C@@H](O)[C@H]2O)c(=O)[nH]1`, the outcome in experiment [1] was inactive. For the compound `[3H]C([3H])(C(=O)O)C([3H])([3H])c1c(C(=O)O)[nH]c2cc(Cl)cc(Cl)c12`, in experiment [2], the Kd turned out to be 1260 nM. Take `O=C(O)CCc1c(C(=O)O)[nH]c2cc(Cl)cc(Cl)c12`: the T1/2 in experiment [3] is 1.8 min; in experiment [5], 0.3 min. For the same compound, the results for the Ki in [4] and in experiment [6] were 2320 nM and 1210 nM, respectively. With `O=c1ccn([C@@H]2O[C@H](COP(=O)(O)OP(=O)(O)OP(=O)(O)O)[C@@H](O)[C@H]2O)c(=O)[nH]1`, in experiment [1], the outcome was inactive. For `CC(C)(O)c1ccccc1CC[C@@H](SCC1(CC(=O)O)CC1)c1cccc(/C=C/c2ccc3ccc(Cl)cc3n2)c1` [MONTELUKAST], in experiment [7], the affinity, expressed as Ki, was 6540 nM. Consider `Nc1ncnc2c1ncn2[C@@H]1O[C@H](COP(=O)(O)OP(=O)(O)O)[C@@H](O)[C@H]1O`, for which the result in [1] was inactive. In the case of `O=C(/C=C/c1c(C(=O)O)[nH]c2cc(Cl)cc(Cl)c12)Nc1ccccc1` [GAVESTINEL], the affinity in [7] corresponds to a Ki of 1630 nM. As for `CCCCC/C=C\C\C=C/C=C/C=C/[C@@H](SCC(NC(=O)CC[C@H](N)C(=O)O)C(=O)NCC(=O)O)[C@@H](O)CCCC(=O)O` (single isomer, unassigned), the outcome in experiment [8] was inactive. Turning to `Nc1nc(=O)c2ncn([C@@H]3O[C@H](COP(=O)(O)OP(=O)(O)OP(=O)(O)O)[C@@H](O)C3O)c2[nH]1` (single isomer, unassigned), the outcome in experiment [9] was Active. Compound `O=C(Nc1cccc2c(=O)cc(-c3nnn[nH]3)oc12)c1ccc(OCCCCc2ccccc2)cc1` [PRANLUKAST] gave a Ki in experiment [7] of 4060 nM.

With `Nc1ncnc2c1ncn2[C@@H]1O[C@H](COP(=O)(O)OP(=O)(O)OP(=O)(O)O)[C@@H](O)[C@H]1O`, the result in experiment [1] was inactive.

These data come from ChEMBL document CHEMBL3259593, “Development of [(3)H]2-Carboxy-4,6-dichloro-1H-indole-3-propionic Acid ([(3)H]PSB-12150): A Useful Tool for Studying GPR17” (ACS Med Chem Lett, 2014).
